The assay has as its target T1, human S1P1 receptor (Homo sapiens, UniProt P21453).
T1 construct: expressed in transfected cells; membranes used
Nature of the assay: GTP γ35S binding assay for S1P1 activity. Format: biochemical. Conditions: membranes of cells stably expressing the S1P1 receptor; agonist-induced GTP γ35S binding; read-out: EC50 at the S1P1 receptor from GTP γ35S. On the procedure: Compounds were synthesized and tested for S1P1 activity using the GTP γ^35S binding assay. These compounds may be assessed for their ability to activate or block activation of the human S1P1 receptor in cells stably expressing the S1P1 receptor.
GTP γ^35S binding was measured in the medium containing (mM) HEPES 25, pH 7.4, MgCl2 10, NaCl 100, dithitothreitol 0.5, digitonin 0.003%, 0.2 nM GTP γ^35S, and 5 μg membrane protein in a volume of 150 μl. Test compounds were included in the concentration range from 0.08 to 5,000 nM unless indicated otherwise. Membranes were incubated with 100 μM 5′-adenylylimmidodiphosphate for 30 min, and subsequently with 10 μM GDP for 10 min on ice. Drug solutions and membrane were mixed, and then reactions were initiated by adding GTP γ^35S and continued for 30 min at 25° C. Reaction mixtures were filtered over Whatman GF/B filters under vacuum, and washed three times with 3 mL of ice-cold buffer (HEPES 25, pH7.4, MgCl2 10 and NaCl 100). Filters were dried and mixed with scintillant, and counted for ^35S activity using a β-counter. Agonist-induced GTP γ^35S binding was obtained by subtracting that in the absence of agonist. Binding data were analyzed using a non-linear regression method. In case of antagonist assay, the reaction mixture contained 10 nM […] in the presence of test antagonist at concentrations ranging from 0.08 to 5000 nM.

T1 sequence (P21453 whole entry): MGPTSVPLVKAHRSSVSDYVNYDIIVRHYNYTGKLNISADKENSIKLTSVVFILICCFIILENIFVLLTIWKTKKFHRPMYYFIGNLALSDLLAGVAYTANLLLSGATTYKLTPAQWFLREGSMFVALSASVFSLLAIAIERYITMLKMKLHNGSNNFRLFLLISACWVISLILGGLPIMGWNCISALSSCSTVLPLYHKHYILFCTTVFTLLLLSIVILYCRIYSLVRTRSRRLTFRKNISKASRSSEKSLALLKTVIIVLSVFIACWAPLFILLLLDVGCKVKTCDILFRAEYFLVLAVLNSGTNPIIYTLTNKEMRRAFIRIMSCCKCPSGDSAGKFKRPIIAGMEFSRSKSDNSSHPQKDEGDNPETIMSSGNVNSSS

A word on the EC50: it is the concentration that produces a half-maximal response. With `CCCCCCc1ccc(-c2ccc(CN3CC(C(=O)O)C3)c3ncccc23)cc1` [Compound 1, 1-{[5-(4-hexylphenyl)quinolin-8-yl]methyl}azetidine-3-carboxylic acid], the EC50 stood at 1550 nM.

The values are drawn from patent publication US8673892B2, “Phenyl bicyclic methyl azetidine derivatives as sphingosine-1 phosphate receptors modulators” (Allergan, Inc., priority 2011, dated 2014).
